According to US20240207192A1, “PHARMACEUTICAL COMPOSITIONS CONTAINING A PIPERIDINYL-METHYL-PURINE AMINE AND THEIR USE IN TREATING DISEASES AND CONDITIONS” (K36 THERAPEUTICS, INC., priority 2022, published 2024):
Where a name gives a salt, the structure may show the parent alone.

How the values were obtained:
Assay type in all cases: physicochemical
[1] = Storage stability of Formulations 1 to 4, related substances by HPLC; settings: 40° C./75% relative humidity, capped glass vials
Experimental: An aliquot of each of Formulation 1, 2, 3, and 4 was subjected to stability testing. In particular, an amount of each formulation sufficient to provide 11.4 mg of Compound 1 was transferred to glass vials and then the vials were capped. The glass vials were stored at 40° C./75% relative humidity for three to six weeks. Samples were analyzed by HPLC to determine the amount of related substances in the formulation.

[2] = Storage stability of Formulations 5, 6 and 7, related substances by HPLC
Experimental: An aliquot of each of Formulation 5, 6, and 7 was subjected to stability testing. In particular, an amount of each formulation sufficient to provide 11.4 mg of Compound 1 was transferred to a glass vial bottle and then the bottle was capped. The glass vials were stored at (a) 40° C./NMT 25% relative humidity or (b) 40° C./75% relative humidity. Samples were analyzed by HPLC to determine the amount of related substances in the formulation.
(§1) Table 2 presents results for samples stored at 40° C./25% relative humidity. Table 3 presents results for samples stored at 40° C./75% relative humidity.

[3] = Storage stability of Formulations 8, 9 and 10, related substances
Experimental: An aliquot of each of Formulation 8, 9, and 10 was subjected to stability testing. In particular, an amount of each formulation sufficient to provide 14.3 mg of Compound 2 was transferred to a glass vial and then the vial was capped. The glass vials were stored at (a) 40° C./NMT 25% relative humidity or (b) 40° C./75% relative humidity. Samples were analyzed to determine the amount of related substances in the formulation.
as §1

[4] = 40° C./25% (NMT 25%) relative humidity

Structure (SMILES)	Percentage of Related Substances in the Formulation (% as Determined by HPLC), 3 Weeks Storage ([1]; 3 weeks)	Percentage of Related Substances in the Formulation (% as determined by HPLC), 6 Weeks Storage ([1]; 6 weeks)	Percentage of Related Substances in the Formulation (% as determined by HPLC), 2 Weeks Storage [2, 4]	Percentage of Related Substances in the Formulation (% as determined by HPLC), 4 Weeks Storage ([2]; 40° C./25% (NMT 25%) relative humidity, 4 weeks)	Percentage of Related Substances in the Formulation (% as determined by HPLC), 2 Weeks Storage ([2]; 40° C./75% relative humidity)	Percentage of Related Substances in the Formulation (% as determined by HPLC), 6 Weeks Storage ([2]; 40° C./75% relative humidity, 6 weeks)	Percentage of Related Substances in the Formulation (% as determined by HPLC), 2 Weeks Storage [3, 4]	Percentage of Related Substances in the Formulation (% as determined by HPLC), 4 Weeks Storage [3, 4]	Percentage of Related Substances in the Formulation (% as determined by HPLC), 6 Weeks Storage [3, 4]	Percentage of Related Substances in the Formulation (% as determined by HPLC), 2 Weeks Storage ([3]; 40° C./75% relative humidity)	Percentage of Related Substances in the Formulation (% as determined by HPLC), 4 Weeks Storage ([3]; 40° C./75% relative humidity)	Percentage of Related Substances in the Formulation (% as determined by HPLC), 6 Weeks Storage ([3]; 40° C./75% relative humidity)
COc1cc(F)c(-c2cc(Cn3cnc4c(N)ncnc43)c(N3CCC[C@](N)([C@H](O)C(F)F)C3)cn2)cc1F [Compound 1, (S)-1-((R)-3-amino-1-(4-((6-amino-9H-purin-9-yl)methyl)-6-(2,5-difluoro-4-methoxyphenyl)pyridin-3-yl)piperidin-3-yl)-2,2-difluoroethan-1-ol D-Tartrate]	0.42%	0.41%	0.56%	0.57%	0.57%	0.57%						
COc1cc(F)c(-c2cc(Cn3cnc4c(N)ncnc43)c(N3CCC[C@](N)([C@H](O)C(F)F)C3)cn2)cc1F [Compound 2, (S)-1-((R)-3-amino-1-(4-((6-amino-9H-purin-9-yl)methyl)-6-(2,5-difluoro-4-methoxyphenyl)pyridin-3-yl)piperidin-3-yl)-2,2-difluoroethan-1-ol Fumarate]							0.55%	0.55%	0.56%	0.55%	0.56%	0.55%
